Results taken from the supplement of paper PMC11208160.

test: recombinant barcode read abundance after kanamycin selection (control-corrected) (log10(CPM+1)); higher = more efficient recombination; sequences stand for … in AGTGCAGAGAAAATCGGCCAGTTTTCTCTGCCTGCAGTCCGCATGCCGT…ATTTATGCAGCGGACTGCCTTTCTCCCAAAGTGATAAACCGGACAGTATCATGGACCGGTTTTCCCGGTAATCCGTATTTGCAAGGTTGGTTTCACT; site = the 11-nt target
Method: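 Same pooled E. coli target screen (IS621 bridge recombinase, kanamycin selection, control-corrected CPM, mean of 2 biological replicates). Here the two core-binding nucleotides of the LTG and RTG of the bridge RNA target-binding loop are mutated. Target and donor CT cores are held constant, and the other 9 guide positions match the target. The target is read from the library oligo sequence. Molecule = full bridge RNA written as DNA: nt 1-80 from the library oligo, rest WT scaffold.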

Sequence	recombinant barcode read abundance (log10)
AAACACAAATGGGTTCTAACCTGTTGCCTAG [AAACACACTAG_LTGcore_AA_RTGcore_CT] (site AAACACACTAG) (LTG core: AA, RTG core: CT)	0.0621
AAACACAATTGGGTTCTAACCTGTTGCCTAG [AAACACACTAG_LTGcore_AT_RTGcore_CT] (site AAACACACTAG) (LTG core: AT, RTG core: CT)	0.375
AAACACACCTGGGTTCTAACCTGTTGCCTAG [AAACACACTAG_LTGcore_CC_RTGcore_CT] (site AAACACACTAG) (LTG core: CC, RTG core: CT)	0.633
AAACACACGTGGGTTCTAACCTGTTGCCTCG [AAACACACTAG_LTGcore_CG_RTGcore_CG] (site AAACACACTAG) (LTG core: CG, RTG core: CG)	0.296
AAACACACTTGGGTTCTAACCTGTTGCCTAT [AAACACACTAG_LTGcore_CT_RTGcore_AT] (site AAACACACTAG) (LTG core: CT, RTG core: AT)	0.39
AAACACATATGGGTTCTAACCTGTTGCCTAG [AAACACACTAG_LTGcore_TA_RTGcore_CT] (site AAACACACTAG) (LTG core: TA, RTG core: CT)	0.104

test: recombinant barcode read abundance after kanamycin selection (control-corrected) (log10(CPM+1)); higher = more efficient recombination; sequences stand for … in AGTGCAGAGAAAATCGGCCAGTTTTCTCTGCCTGCAGTCCGCATGCCGT…AGATTTATGCAGCGGACTGCCTTTCTCCCAAAGTGATAAACCGGACAGTATCATGGACCGGTTTTCCCGGTAATCCGTATTTGCAAGGTTGGTTTCACT; site = the 11-nt target
Procedure, shortened: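 The screen was pooled in E. coli and paired targets with IS621 bridge RNA target-binding loops. Recombination efficiency is taken from barcode counts per million at recombinant junctions, averaged and adjusted against the control. Values, in the form log10(CPM+1), come from duplicate plating on chloramphenicol/ampicillin LB agar or on chloramphenicol/ampicillin/kanamycin with 0.1 mM IPTG.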

Sequence	recombinant barcode read abundance (log10)
TTCGAGTCTTGGGTTCTAACCTGTTGCGG (site TGCGAGTCTAC)	0.0798
TTCGAGTCTTGGGTTCTAACCTGTTGCGG (site TTCGAGTCTCC)	1.91
TTCGCGCCTTGGGTTCTAACCTGTTGCCT (site TTCACGCCTAG)	0.0251
TTCGCGCCTTGGGTTCTAACCTGTTGCCT (site TTCCCGCCTAG)	0.144
TTCGCGCCTTGGGTTCTAACCTGTTGCCT (site TTCGCGCCTAG)	0.134
TTCGCGCCTTGGGTTCTAACCTGTTGCCT (site TTCTCGCCTAG)	0.176
TTCGGGCCTTGGGTTCTAACCTGTTGCCT (site ATCGGGCCTAG)	0.0878
TTCGGGCCTTGGGTTCTAACCTGTTGCCT (site CTCGGGCCTAG)	0.0465
TTCGGGCCTTGGGTTCTAACCTGTTGCCT (site GTCGGGCCTAG)	0.0582
TTCGGGCCTTGGGTTCTAACCTGTTGCCT (site TTCGGGCCTAG)	0.169
TTCTAGTCTTGGGTTCTAACCTGTTGCTA (site ACAAGACCTAT)	0.0562
TTCTAGTCTTGGGTTCTAACCTGTTGCTA (site TTCTAGTCTTA)	0.416
TTCTGCGCTTGGGTTCTAACCTGTTGCCT (site TTCTGAGCTAG)	0.0215
TTCTGCGCTTGGGTTCTAACCTGTTGCCT (site TTCTGCGCTAG)	1.2
TTCTGCGCTTGGGTTCTAACCTGTTGCCT (site TTCTGGGCTAG)	0.0626
TTCTGCGCTTGGGTTCTAACCTGTTGCCT (site TTCTGTGCTAG)	0.191
TTCTGGGCTTGGGTTCTAACCTGTTGCCT (site TTCTGAGCTAG)	0.172
TTCTGGGCTTGGGTTCTAACCTGTTGCCT (site TTCTGCGCTAG)	0.0493
TTCTGGGCTTGGGTTCTAACCTGTTGCCT (site TTCTGGGCTAG)	0
TTCTGGGCTTGGGTTCTAACCTGTTGCCT (site TTCTGTGCTAG)	0.137
TTGAAACCTTGGGTTCTAACCTGTTGCCT (site GACGCCTCTGC)	0.0146
TTGAAACCTTGGGTTCTAACCTGTTGCCT (site TTGAAACCTAG)	1.04
TTGAGGCCTTGGGTTCTAACCTGTTGCCT (site ATGAGGCCTAG)	0.059

Sequence	recombinant barcode read abundance (log10)
TTGAGGCCTTGGGTTCTAACCTGTTGCCT (site CTGAGGCCTAG)	0.0268
TTGAGGCCTTGGGTTCTAACCTGTTGCCT (site GTGAGGCCTAG)	0.0327
TTGAGGCCTTGGGTTCTAACCTGTTGCCT (site TTGAGGCCTAG)	0.0305
TTGAGTCCTTGGGTTCTAACCTGTTGCCT (site TTGAGTCCTAG)	1.04
TTGAGTCCTTGGGTTCTAACCTGTTGCCT (site TTGGGTCCTAC)	0.319
TTGATAGCTTGGGTTCTAACCTGTTGCTA (site ACCGCGTCTAT)	0.174
TTGATAGCTTGGGTTCTAACCTGTTGCTA (site TTGATAGCTTA)	0.203
TTGCAAACTTGGGTTCTAACCTGTTGCCT (site TTGCAAACTAG)	0.501
TTGCAAACTTGGGTTCTAACCTGTTGCCT (site TTGCCAACTAG)	0.0256
TTGCAAACTTGGGTTCTAACCTGTTGCCT (site TTGCGAACTAG)	0.0337
TTGCAAACTTGGGTTCTAACCTGTTGCCT (site TTGCTAACTAG)	0.0349
TTGCGAACTTGGGTTCTAACCTGTTGCAG (site GACGCGGCTAG)	0.0589
TTGCGAACTTGGGTTCTAACCTGTTGCAG (site TTGCGAACTCT)	0.455
TTGCGAACTTGGGTTCTAACCTGTTGCCT (site TTGCAAACTAG)	0.0904
TTGCGAACTTGGGTTCTAACCTGTTGCCT (site TTGCCAACTAG)	0.269
TTGCGAACTTGGGTTCTAACCTGTTGCCT (site TTGCGAACTAG)	0.868
TTGCGAACTTGGGTTCTAACCTGTTGCCT (site TTGCTAACTAG)	0.0519
TTGCTAACTTGGGTTCTAACCTGTTGCCT (site TTGCAAACTAG)	0.0817
TTGCTAACTTGGGTTCTAACCTGTTGCCT (site TTGCCAACTAG)	0.0109
TTGCTAACTTGGGTTCTAACCTGTTGCCT (site TTGCGAACTAG)	0.0431
TTGCTAACTTGGGTTCTAACCTGTTGCCT (site TTGCTAACTAG)	0.802
TTGGATACTTGGGTTCTAACCTGTTGCCA (site CATCTACCTCC)	0.103
TTGGATACTTGGGTTCTAACCTGTTGCCA (site TTGGATACTTG)	1.04

Sequence	recombinant barcode read abundance (log10)
TTGGCCACTTGGGTTCTAACCTGTTGCCT (site TTGGACACTAG)	0.0972
TTGGCCACTTGGGTTCTAACCTGTTGCCT (site TTGGCCACTAG)	1.08
TTGGCCACTTGGGTTCTAACCTGTTGCCT (site TTGGGCACTAG)	0.121
TTGGCCACTTGGGTTCTAACCTGTTGCCT (site TTGGTCACTAG)	0.0232
TTGGCCGCTTGGGTTCTAACCTGTTGCCT (site TTGGACGCTAG)	0.109
TTGGCCGCTTGGGTTCTAACCTGTTGCCT (site TTGGCCGCTAG)	1.65
TTGGCCGCTTGGGTTCTAACCTGTTGCCT (site TTGGGCGCTAG)	0.374
TTGGCCGCTTGGGTTCTAACCTGTTGCCT (site TTGGTCGCTAG)	0.148
TTGGGGTCTTGGGTTCTAACCTGTTGCCT (site GTAGGGTCTAG)	0.155
TTGGGGTCTTGGGTTCTAACCTGTTGCCT (site TTGGGGTCTAG)	1.65
TTGGGTCCTTGGGTTCTAACCTGTTGCGT (site TTGAGTCCTAG)	0.15
TTGGGTCCTTGGGTTCTAACCTGTTGCGT (site TTGGGTCCTAC)	3.32
TTGGTCACTTGGGTTCTAACCTGTTGCCA (site GGAAGGCCTAA)	0.0841
TTGGTCACTTGGGTTCTAACCTGTTGCCA (site TTGGTCACTTG)	0.525
TTGGTCCCTTGGGTTCTAACCTGTTGCCT (site TTGGTACCTAG)	0.565
TTGGTCCCTTGGGTTCTAACCTGTTGCCT (site TTGGTCCCTAG)	2.93
TTGGTCCCTTGGGTTCTAACCTGTTGCCT (site TTGGTGCCTAG)	0.0514
TTGGTCCCTTGGGTTCTAACCTGTTGCCT (site TTGGTTCCTAG)	0.131
TTGTATACTTGGGTTCTAACCTGTTGCCT (site GTGTCTACTAG)	0.129
TTGTATACTTGGGTTCTAACCTGTTGCCT (site TTGTATACTAG)	0.612
TTGTGAGCTTGGGTTCTAACCTGTTGCGG (site TTGTAAGCTCG)	0.037
TTGTGAGCTTGGGTTCTAACCTGTTGCGG (site TTGTGAGCTCC)	1.15
